Measurements published in article PMC8518382, “Identification of a Bromodomain‐like Region in 15‐Lipoxygenase‐1 Explains Its Nuclear Localization” (Angewandte Chemie (International Ed. in English), 2021).
Values joined by “and” are separate entries in the source; they are usually repeats but may differ in a detail not shown here. Identical values can stand only once.

Experiments:
15-LOX-2 = molecular target: T1, 15-LOX-2 (Homo sapiens, UniProt O15296); assay: ABP-based ELISA assay with A549 cell lysate, 15-LOX-2; format: biochemical
T1 construct: endogenous in cells; host or cells: A549 cell lysate
T1 sequence (O15296 1-676): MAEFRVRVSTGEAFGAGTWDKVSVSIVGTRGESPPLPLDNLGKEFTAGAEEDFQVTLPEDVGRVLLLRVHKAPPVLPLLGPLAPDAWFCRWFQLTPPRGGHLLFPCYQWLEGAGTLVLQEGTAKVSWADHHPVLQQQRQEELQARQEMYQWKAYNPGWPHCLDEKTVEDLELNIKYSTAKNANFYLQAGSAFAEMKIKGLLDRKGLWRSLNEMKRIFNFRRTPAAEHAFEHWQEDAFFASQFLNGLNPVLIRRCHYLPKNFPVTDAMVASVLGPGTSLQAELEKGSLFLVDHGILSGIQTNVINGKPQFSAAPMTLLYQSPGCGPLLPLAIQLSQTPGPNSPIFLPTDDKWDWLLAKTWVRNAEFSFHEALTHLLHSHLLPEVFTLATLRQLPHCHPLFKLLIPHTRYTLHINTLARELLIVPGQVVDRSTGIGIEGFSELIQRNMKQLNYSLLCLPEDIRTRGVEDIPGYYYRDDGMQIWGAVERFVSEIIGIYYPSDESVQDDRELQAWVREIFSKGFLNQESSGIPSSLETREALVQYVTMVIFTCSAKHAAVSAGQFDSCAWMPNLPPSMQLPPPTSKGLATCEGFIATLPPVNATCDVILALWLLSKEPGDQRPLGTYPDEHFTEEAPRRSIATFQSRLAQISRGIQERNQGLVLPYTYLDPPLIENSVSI
Procedure: (§1) A549 cell lysate was treated with a serial dilution of the respective inhibitor. Subsequently, samples were labeled by treatment with 1 μM of Labelox B for 1 min. […] Data are mean±s.d., n≥3 independent experiments. […]
(§2) 1.6. Immunoblotting Analysis […]
(§3) 1.7. ABPP-based LOX inhibitor specificity validation
(§4) A549 cells were lysed by RIPA buffer supplemented with 1x PIC. After sonication and centrifugation, the supernatant was collected, and the protein concentration was determined by a Pierce BCA Protein Assay Kit (Thermo Fisher Scientific, USA). The lysates were then diluted with PBS to 300 ng/µl and stored in -20°C. To label endogenous LOXs with Labelox B under the competition condition, 180 µl diluted lysates were incubated with 200 µl different LOX inhibitor solution (in PBS) with desired concentrations for 18 min to inhibit LOXs activity. Later, 20 µl of a 20 µM Labelox B (in PBS) was added and incubated shortly for 2 min, followed by adding 50 µl of a 0.5 M EDTA to stop the labeling reaction. The reaction mixture was 450 µl in total. Inhibitors and Labelox B were absent in positive and […]
(1 picture or pasted object on this page, not shown here) […]
(§5) negative control, respectively. To detect the competition labeling of Labelox B among different LOXs, a high-binding 96-well plate (Greiner, #M4561) was coated with 5-LOX (#ab169755, Abcam), 12-LOX […]
(1:500 dilution in PBS) for overnight at 4°C. After washing triply with 0.05%PBST, the plate was blocked with 2% (w/v) BSA in PBST. Subsequently, 100 µl of each reaction mixture was added to the LOX-antibody-coated wells. There are four LOX antibodies used for coating. Therefore, in total, 400 µl mixture is needed for each reaction. After one hour of incubation, LOXs were pulled down by antibodies accordingly. Next, 100 µl of HRP-conjugated streptavidin (1:2000 dilution in PBS, Thermo Fisher Scientific, USA) was added to each well to detect the D04 labeled LOXs among precipitated LOXs. […] The absorbance at […]

12-LOX = molecular target: T2, 12-LOX (Homo sapiens, UniProt P18054); assay: ABP-based ELISA assay with A549 cell lysate, 12-LOX; format: biochemical
T2 construct: the endogenous LOXs were captured on an anti‐LOX antibody precoated 96‐well plate; endogenous in cells; host or cells: A549 cell lysate
T2 sequence (P18054 1-663): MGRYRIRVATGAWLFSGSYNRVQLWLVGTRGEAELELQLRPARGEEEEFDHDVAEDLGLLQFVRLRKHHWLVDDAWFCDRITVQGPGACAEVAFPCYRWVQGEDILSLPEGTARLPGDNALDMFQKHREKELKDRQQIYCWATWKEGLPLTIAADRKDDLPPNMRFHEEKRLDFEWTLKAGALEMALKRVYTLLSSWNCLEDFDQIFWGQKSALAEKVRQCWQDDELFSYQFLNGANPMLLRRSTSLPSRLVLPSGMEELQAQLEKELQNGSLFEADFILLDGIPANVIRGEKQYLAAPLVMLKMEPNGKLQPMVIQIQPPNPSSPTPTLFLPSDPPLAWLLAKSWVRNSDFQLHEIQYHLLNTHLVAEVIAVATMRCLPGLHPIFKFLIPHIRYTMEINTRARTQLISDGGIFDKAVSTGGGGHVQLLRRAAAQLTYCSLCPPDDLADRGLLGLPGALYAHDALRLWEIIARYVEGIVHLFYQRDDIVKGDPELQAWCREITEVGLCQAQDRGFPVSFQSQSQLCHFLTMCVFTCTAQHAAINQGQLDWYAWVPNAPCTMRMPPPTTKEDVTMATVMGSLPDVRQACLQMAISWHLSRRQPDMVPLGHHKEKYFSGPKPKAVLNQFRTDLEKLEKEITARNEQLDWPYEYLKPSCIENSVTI
Procedure: as §1, §2, §3, §4, §5
(1:500 dilution in PBS) for overnight at 4°C. After washing triply with 0.05%PBST, the plate was blocked with 2% (w/v) BSA in PBST. Subsequently, 100 µl of each reaction mixture was added to the LOX-antibody-coated wells. There are four LOX antibodies used for coating. Therefore, in total, 400 µl mixture is needed for each reaction. After one hour of incubation, LOXs were pulled down by antibodies accordingly. Next, 100 µl of HRP-conjugated streptavidin (1:2000 dilution in PBS, Thermo Fisher Scientific, USA) was added to each well to detect the D04 labeled LOXs among precipitated LOXs. After washing with PBST, 100 µl of mixed HRP substrate reagent (R&D Systems, Minneapolis, USA) was added, and the colorizing reaction was stopped by adding 100 µl of 1M sulfuric acid. The absorbance at […]

| Structure (SMILES) | HillSlope Value (15-LOX-2) | HillSlope Value (12-LOX) | IC50 (15-LOX-2; 1 μM Labelox B) | IC50 (12-LOX; 1 μM Labelox B) |
| --- | --- | --- | --- | --- |
| O=c1cc(-c2ccccc2)oc2cc(O)c(O)c(O)c12 [Baicalein] | -0.34 | -0.41 | – | – |
| c1ccc2c(c1)SCc1c-2[nH]c2ccccc12 [PD146176] | -0.88 | -0.98 | > 100 µM and 123 µM | ~17 µM and 19.1 µM |
